Results published in patent US10428142B2, “Multipartite signaling proteins and uses thereof” (BLUEBIRD BIO, INC., priority 2013, dated 2019).
Read-outs that look alike come from different tables or passages of the source.

Columns and labels:
K562-CD19 cells [1] = conditions: for elimination of K562-CD19 cells by bridging factor: rapamycin 10 nM or AP21967 100 nM, 5:1
Method: The transduced T cells were then co-incubated with about a 50:50 mixture of the K562 target cells expressing either CD19 (K562-CD19) or CD20 (K562-CD20) to evaluate antigen-specific cytotoxicity. […] The DARIC antigen binding component includes a CD19 antigen binding scFv domain and a FKBP12 multimerization domain, which was linked to a mCherry fluorescent protein.
In addition, two distinct T cell populations were mixed, wherein one population was expressing a DARIC antigen binding component and the other population was expressing a DARIC signaling component.

K562-CD19 cells [2] = assay: Deactivation of DARIC cytotoxicity using an anti-bridging factor; assay type: cell-based, human
Method: Deactivation of the DARIC system by the addition of a pharmacological agent that competes for binding to one of the multimerization domains was tested. Primary human T cells expressing either a traditional CD19 targeting CAR or primary human T cells expressing the CD19 targeting DARIC components (SEQ ID NO.:66) were co-incubated with 50:50 mixtures of K562-CD19 and K562-CD20 cells.

K562-CD19 target cells [3] = test system: K562-CD19 target cells
Method: (§1) A broad range of bridging factor (rapamycin and everolimus) concentrations were tested to determine whether a DARIC system can function at clinically relevant concentrations. As in the Example 4, primary human T cells were isolated, activated, and then transduced with lentiviral vectors expressing a DARIC binding component (SEQ ID NOS.:1, 4, 7) and a DARIC signaling component (SEQ ID NOS.:15, 19, 23). The DARIC expressing T cells were then co-incubated with 50:50 mixtures of the K562-CD19 and K562-CD20 target cells to evaluate antigen-specific cytotoxicity. The overall ratio of T cells to K562 cells was 5:1 in all samples.

K562-CD19 target cells [4] = assay: Titration of bridging factors, DARIC T cell cytotoxicity; conditions: DARIC expressing T cells, 5:1, 50:50 K562-CD19:K562-CD20
Method: as §1

## CO[C@H]1[C@@H](O)[C@H](C)C[C@H](C)/C=C/C=C/C=C(\C)[C@@H](c2c[nH]c3c(C)cccc23)C[C@@H]2CC[C@@H](C)[C@@](O)(O2)C(=O)C(=O)N2CCCC[C@H]2C(=O)O[C@H]([C@H](C)C[C@@H]2CC[C@@H](O)[C@H](OC)C2)C[C@H](O)[C@H](C)/C=C(\C)[C@H]1O [AP21967, C-16-(S)-7-methylindolerapamycin]
K562-CD19 cells [1]; T cells with CD19 scFv-FKBP12 binding component and FRB (2021-2113) T2098L signaling component
  elimination of K562-CD19 cells by bridging factor: elimination of the CD19 expressing K562 cells
K562-CD19 cells [1]; T cells with CD19 scFv-FKBP12 binding component and FRB signaling component
  elimination of K562-CD19 cells by bridging factor: no effect on cell survival

## C=CC[C@@H]1/C=C(\C)C[C@H](C)C[C@H](OC)[C@H]2O[C@@](O)(C(=O)C(=O)N3CCCC[C@H]3C(=O)O[C@H](/C(C)=C/[C@@H]3CC[C@@H](O)[C@H](OC)C3)[C@H](C)[C@@H](O)CC1=O)[C@H](C)C[C@@H]2OC [FK506]
K562-CD19 cells [2]; CD19 targeting CAR T cells
  reduction in antigen specific cytotoxicity when added: minimal reduction
K562-CD19 cells [2]; CD19 targeting DARIC T cells with rapamycin
  reduction in antigen specific cytotoxicity when added: marked reduction

## CO[C@H]1C[C@@H]2CC[C@@H](C)[C@@](O)(O2)C(=O)C(=O)N2CCCC[C@H]2C(=O)O[C@H]([C@H](C)C[C@@H]2CC[C@@H](OCCO)[C@H](OC)C2)CC(=O)[C@H](C)/C=C(\C)[C@@H](O)[C@@H](OC)C(=O)[C@H](C)C[C@H](C)/C=C/C=C/C=C/1C [everolimus]
K562-CD19 target cells [3]
  cytotoxicity responses over bridging factor concentration: maintained to sub-nanomolar drug concentrations

## CO[C@H]1C[C@@H]2CC[C@@H](C)[C@@](O)(O2)C(=O)C(=O)N2CCCC[C@H]2C(=O)O[C@H]([C@H](C)C[C@@H]2CC[C@@H](O)[C@H](OC)C2)CC(=O)[C@H](C)/C=C(\C)[C@@H](O)[C@@H](OC)C(=O)[C@H](C)C[C@H](C)/C=C/C=C/C=C/1C [rapamycin]
K562-CD19 target cells [4]
  cytotoxicity responses over bridging factor concentration: maintained to sub-nanomolar drug concentrations
K562-CD19 cells [1]; mixed T cell populations, one expressing the binding component, the other the signaling component
  cytotoxicity by bridging factor: cytotoxicity response against K562-CD19 cells
